How the values were obtained:
[1] = Motor impairment, inverted screen test
Description: Naive male CD-1 mice (20-30 grams body weight) from Charles River Laboratories, Portage Mich. served as subjects. The mice had ad libitum access to food and water prior to testing and were maintained on a 12 hour light/12 hour dark schedule with testing during the light portion of the cycle. The mice were tested for motor impairment by use of the inverted screen test approximately 5 minutes prior to anticonvulsant testing. […] Mice were placed on 13×13 cm pieces of #4 wire mesh screen which were mounted horizontally. The screens were then slowly inverted. […] PG-Tween is a 1:1 mixture of propylene glycol and Tween 80. […] There were 10 mice in each treatment group.

[2] = tested on: CA1 region of the hippocampus; experiment: Forebrain Ischemia Assay; assay type: in vivo, Mongolian gerbil; details: for # of Neurons/Field: 7 days after 4-5 min carotid occlusion
Description: This assay was used to determine the extent of protection afforded by compound of the invention to neural brain cells subjected to ischemic conditions. Male Mongolian gerbils, 50-70 gm, were used as subjects. Compound No. 7 (30 mg/kg) was injected j.p. 30 minutes prior to carotid occlusion into 6 gerbils […]. In preparation for surgical procedures, the animals were lightly anesthetized with methoxyflurane and placed upside down on a heated pad with their snout within a nosecone. A 70:30 mixture of nitrous oxide and oxygen containing 0.5% halothane was circulated through the nosecone to provide continuous anesthesia throughout the surgical procedure. A midline incision was made in the neck and the carotid arteries were exposed. A length of suture thread was placed under each carotid. The thread was then tightened around each carotid and pressure applied to the thread to insure flow was occluded. Flow was occluded for 4-5 minutes and then the thread was removed. The carotids were visually inspected to confirm that reflow had occurred. The wound was then closed with autoclips and the gerbils allowed to recover. Following surgery, the gerbils were kept alive for 7 days. They were anesthetized with 100 mg/kg sodium pentobarbital and perfused transcardially with saline (with heparin) followed by buffered formalin. The brain was removed, trimmed and prepared for histological processing. Sections (10 microns) were stained with thionin. […] Quantification of the resulting lesion is made by counting the pyramidal cell somata in a 0.5 mm length of CAl of the hippocampus on the section corresponding to P 1.7 mm in the gerbil brain atlas.
Normal cell count in this region of the hippocampus in unoperated gerbils is 146±2. The effects of compound of Ex. #7 were assessed by comparing the number of neural cells found in the hippocampus of subjects treated with Ex. #7 compound with the cell number found in the appropriate control groups. […]

[3] = target: TCP (1-[1-(2-thienyl)cyclohexyl]piperidine) binding; experiment: TCP Modulation Assay; design: species or system rat; details: 2 nM tritiated TCP, 0.05 mM L-glutamate, rat brain SPM, pH 7.4, 25° C., 60 min; read-out: TCP Ki IC50
Description: The effect on the TCP (1-[1-(2-thienyl)cyclohexyl]piperidine) binding was measured in rat brain synaptic membranes (SPM) prepared as previously described [J. B. Monahah & J. Michel; J. Neurochem. […] Prior to their use in the binding assay, frozen SPM were thawed, diluted twenty fold with 50 mM Tris/acetate (pH 7.4 containing 0.04% (v/v) Triton X-100), incubated for 30 min. at 37° C. and centrifuged at 95,000 xg for 15 min. The Triton X-100 treated SPM were washed with 5 mM Tris/HCl, pH 7.4 and centrifuged a total of six times. […] The samples were filtered through glass fiber filters (Schleicher & Schuell #32) which have been pretreated with 0.05% (v/v) polyethylenimine, washed 4 times with 2 ml of ice-cold 5 mM Tris/HCl buffer, and then counted on a Beckman LS 5800 liquid scintillation counter with automatic corrections for quenching and counting efficiency. Inhibition of TCP binding was measured as a decrease in the binding in the presence of 0.05 mM L-glutamate. Non-specific binding was defined as the residual binding in the presence of […] phencyclidine.

O=C(O)c1cn2c(CP(=O)(O)O)cccc2n1 [Example 7, 5-(phosphonomethyl)imidazo[1,2-a]pyridine-2-carboxylic acid]
Exhibiting Motor Impairments (% of Mice) ([1]; 10 mg/kg s.c.): 30%
Exhibiting Motor Impairments (% of Mice) ([1]; 32 mg/kg s.c.): 50%
Exhibiting Motor Impairments (% of Mice) ([1]; 56 mg/kg s.c.): 70%
Exhibiting Motor Impairments (% of Mice) ([1]; 100 mg/kg s.c.): 90%
TD50 at 0.5 h ([1]; mouse, inverted screen test, sc): 24.6 mg/kg
impaired motor function (in words) ([1]; s.c.): impaired motor function in a similar dose range
# of Neurons/Field ([2]; 300 mg/kg, control 32.8, P < 0.05): 53.0
# of Neurons/Field ([2]; 500 mg/kg, control 17.0, p < 0.0001): 112.6
cell loss ([2]; vs control, Mann-Whitney U test): significantly reduced
Ki [3]: 3.2 µM

From patent US5360796A, “Imidazo[1,2-a]pyridinylalkyl phosphonic acid compounds for treatment of neurotoxic injury” (G. D. Searle & Co., priority 1991, dated 1994)
